The record followed here is patent publication US20100049117A1, “Microporator for Porating a Biological Membrane and Integrated Permeant Administering System” (PANTEC BIOSOLUTIONS AG, priority 2005, published 2010).

This data set is described as follows: Serum concentration of drug over time after application onto microporated skin (FIG. 10a, 10b). The format is in vivo. Particulars: for period of time of maximal serum concentration: transdermal. The source says: FIG. 10a, 10b show the serum concentration of a drug over time, with the same amount of drug but different permeation surfaces.
The drug is entering the permeation surface by passive diffusion. The amount of drug entering the permeation surface is mainly determined by the permeation surface A(t) over time. Therefore, the serum concentration as a function of time can be determined by an appropriate poration of the skin 1 with an initial microporation.
FIG. 10a to 10b show the administration of the same drug, for example 100 mg acetylsalicylic acid, the drug being arranged on the skin 1 as disclosed in FIG. 3c. Depending on the permeation surface A(t) as a function of time, the level of the serum concentration as well as the time period within which the drug is released, can be predescribed. In FIG. 10a the permeation surface A(t), not shown in detail, is chosen such that the maximal serum concentration is about 25 g/l over a short period of time of about two hours. […] A further advantage is that the same amount of drug, e.g. the same patch, applied onto the skin 1, causes a different serum concentration, depending only on the function of the permeation surface A over time. This allows administering the same drug in different ways. This also allows administering the same drug in an individual way, in that the initial permeation surface is created depending on individual parameters of the person the drug is applied to.

With `CC(=O)Oc1ccccc1C(=O)O` [acetylsalicylic acid], the “period of time of maximal serum concentration” value is, setting by setting: (FIG. 10a, 100 mg) “about two”; (FIG. 10b, 100 mg, fast application (turbo)) “about two”. Besides, for the setting “FIG. 10b, 100 mg, fast application (turbo), patch on microporated skin (transdermal)”, the maximal serum concentration entry is recorded as “about 30 g/l”. Further, the “course of serum concentration” value is, setting by setting: (oral application OA) “heavy fluctuation”; (transdermal application TD) “about constant value”.
